Among the data in the supplement of paper PMC10307832 are relative viability values, retold here.

Common to all, as to test: relative viability (nuclei count vs DMSO), 5 days (fraction); higher = more cells survive
Compound in the assay “CUDC-101 + Pictilisib”: C#Cc1cccc(Nc2ncnc3cc(OC)c(OCCCCCCC(=O)NO)cc23)c1 [CUDC-101] + CS(=O)(=O)N1CCN(Cc2cc3nc(-c4cccc5[nH]ncc45)nc(N4CCOCC4)c3s2)CC1 [Pictilisib] (partner 1 µM)
An outline of the steps: (§1)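 Cells from lung cancer lines were seeded into 1536-well plates and, one day later, dosed by pin tool. Treatments were either a single drug or a fixed dose of an anchor drug with five library-drug doses (not always all listed) in √10 steps. After 5 days, nuclei were stained in a one-step fixation (final 0.05% Triton X-100, 1% formaldehyde, 1 ug/ml Hoechst) and counted on 4× images, and relative viability is the treated-to-vehicle nuclei ratio, as the median of duplicate plates.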

Compound in assay [1]: C1=CC=C2C(=C1)N=C(S2)C(C#N)C3=NC(=NC=C3)NCCC4=CN=CC=C4 + CCNC(=O)c1noc(-c2cc(C(C)C)c(O)cc2O)c1-c1ccc(CN2CCOCC2)cc1 [Luminespib] (partner 0.01 µM)
An outline of the steps:
as §1

Compound in assay [2]: C1=CC=C2C(=C1)N=C(S2)C(C#N)C3=NC(=NC=C3)NCCC4=CN=CC=C4 + N=C(N)NC(=N)NCCc1ccccc1 [Phenformin] (partner 250 µM)
In a few lines:
as §1

Compound in the assay “NVP-TAE684 + Dasatinib”: COc1cc(N2CCC(N3CCN(C)CC3)CC2)ccc1Nc1ncc(Cl)c(Nc2ccccc2S(=O)(=O)C(C)C)n1 [NVP-TAE684] + Cc1nc(Nc2ncc(C(=O)Nc3c(C)cccc3Cl)s2)cc(N2CCN(CCO)CC2)n1 [Dasatinib] (partner 0.075 µM)
An outline of the steps: as §1

Regarding SK-LU-1, the relative viability with CUDC-101 + Pictilisib (first compound 0.01 µM) came to 0.703; with CUDC-101 + Pictilisib (first compound 0.03162 µM) it was 0.597; in the assay with CUDC-101 + Pictilisib (first compound 0.1 µM), 0.628; with CUDC-101 + Pictilisib (first compound 0.3162 µM) it was 0.427; with CUDC-101 + Pictilisib (first compound 1 µM), 0.381; in assay [1] (first compound 0.005 µM), 0.185. Also, the relative viability in assay [1] (first compound 0.01581 µM) turned out to be 0.194; in assay [1] (first compound 0.05 µM), 0.187; in assay [1] (first compound 0.1581 µM), 0.223; in assay [1] (first compound 0.5 µM) it was 0.197; in assay [2] (first compound 0.005 µM), 0.323; in assay [2] (first compound 0.01581 µM), 0.593. For the same cell line, the relative viability in assay [2] (first compound 0.05 µM) was 0.529; in assay [2] (first compound 0.1581 µM) it was 0.608; in assay [2] (first compound 0.5 µM) it was 0.475; with NVP-TAE684 + Dasatinib (first compound 0.2 µM) it was 0.188; with NVP-TAE684 + Dasatinib (first compound 0.6325 µM) it was 0.138; with NVP-TAE684 + Dasatinib (first compound 2 µM), 0.0928.
On to SK-MES-1, for which the relative viability with CUDC-101 + Pictilisib (first compound 0.01 µM) turned out to be 0.356; with CUDC-101 + Pictilisib (first compound 0.03162 µM) it was 0.34; with CUDC-101 + Pictilisib (first compound 0.1 µM) it was 0.317; in the assay with CUDC-101 + Pictilisib (first compound 0.3162 µM), 0.256; with CUDC-101 + Pictilisib (first compound 1 µM), 0.184; in assay [1] (first compound 0.005 µM), 1.16. Further, the relative viability is 0.937 in assay [1] (first compound 0.01581 µM); 0.669 in assay [1] (first compound 0.05 µM); 0.962 in assay [1] (first compound 0.1581 µM); 0.85 in assay [1] (first compound 0.5 µM); 0.677 in assay [2] (first compound 0.005 µM); 0.776 in assay [2] (first compound 0.01581 µM). Moreover, the relative viability came to 0.648 in assay [2] (first compound 0.05 µM); 0.767 in assay [2] (first compound 0.1581 µM); 0.62 in assay [2] (first compound 0.5 µM); 0.317 in the assay with NVP-TAE684 + Dasatinib (first compound 0.2 µM); 0.159 in the assay with NVP-TAE684 + Dasatinib (first compound 0.6325 µM); 0.242 in the assay with NVP-TAE684 + Dasatinib (first compound 2 µM).
Turning to SW 1573, the relative viability came to 0.582 with CUDC-101 + Pictilisib (first compound 0.01 µM); 0.507 in the assay with CUDC-101 + Pictilisib (first compound 0.03162 µM); 0.587 with CUDC-101 + Pictilisib (first compound 0.1 µM); 0.532 with CUDC-101 + Pictilisib (first compound 0.3162 µM); 0.313 with CUDC-101 + Pictilisib (first compound 1 µM); 0.317 in assay [1] (first compound 0.005 µM). Moreover, the relative viability in assay [1] (first compound 0.01581 µM) came to 0.292; in assay [1] (first compound 0.05 µM), 0.221; in assay [1] (first compound 0.1581 µM), 0.275; in assay [1] (first compound 0.5 µM), 0.193; in assay [2] (first compound 0.005 µM) it was 0.251; in assay [2] (first compound 0.01581 µM), 0.395. Moreover, the relative viability in assay [2] (first compound 0.1581 µM) stood at 0.484; in assay [2] (first compound 0.5 µM), 0.382; with NVP-TAE684 + Dasatinib (first compound 0.2 µM), 0.236; with NVP-TAE684 + Dasatinib (first compound 0.6325 µM) it was 0.227; with NVP-TAE684 + Dasatinib (first compound 2 µM) it was 0.0788.
